What was measured:
HiBit-BRM fusion protein = target: T1, HiBit-BRM fusion protein (Homo sapiens, UniProt P51531); experiment: HiBiT-BRM cell-based degradation assay (Nano-Glo HiBiT Lytic Detection, 24 h); settings: HeLa cells expressing HiBiT-BRM; for DC50: read-out: BRM HiBit Degradation IC50; for BRM HiBit Degradation Maximum measured: top dose 30 μM
T1 construct: expressed in transfected cells
Method in brief: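 Stable HiBiT-BRM HeLa line; 24 h compound exposure, top final 30 μM, 3-fold, 10 pts in duplicate. Lytic HiBiT/LgBiT luminescence readout. % degradation vs DMSO (0%) and 2 μM known BRM/BRG1 degrader (100%).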

[1] = target: T2, HiBit-BRG1 fusion protein (Homo sapiens, UniProt P51532); experiment: HiBiT-BRG1 cell-based degradation assay (Nano-Glo HiBiT Lytic Detection, 24 h); settings: HeLa cells expressing HiBit-BRG1 and LgBit; for DC50: read-out: BRG1 HiBit Degradation IC50; for Dmax: HeLa, top dose 30 μM, read-out: BRG1 HiBit Degradation Maximum measured
T2 construct: expressed in transfected cells
T2 sequence (P51532 whole entry, the tested form may be a part): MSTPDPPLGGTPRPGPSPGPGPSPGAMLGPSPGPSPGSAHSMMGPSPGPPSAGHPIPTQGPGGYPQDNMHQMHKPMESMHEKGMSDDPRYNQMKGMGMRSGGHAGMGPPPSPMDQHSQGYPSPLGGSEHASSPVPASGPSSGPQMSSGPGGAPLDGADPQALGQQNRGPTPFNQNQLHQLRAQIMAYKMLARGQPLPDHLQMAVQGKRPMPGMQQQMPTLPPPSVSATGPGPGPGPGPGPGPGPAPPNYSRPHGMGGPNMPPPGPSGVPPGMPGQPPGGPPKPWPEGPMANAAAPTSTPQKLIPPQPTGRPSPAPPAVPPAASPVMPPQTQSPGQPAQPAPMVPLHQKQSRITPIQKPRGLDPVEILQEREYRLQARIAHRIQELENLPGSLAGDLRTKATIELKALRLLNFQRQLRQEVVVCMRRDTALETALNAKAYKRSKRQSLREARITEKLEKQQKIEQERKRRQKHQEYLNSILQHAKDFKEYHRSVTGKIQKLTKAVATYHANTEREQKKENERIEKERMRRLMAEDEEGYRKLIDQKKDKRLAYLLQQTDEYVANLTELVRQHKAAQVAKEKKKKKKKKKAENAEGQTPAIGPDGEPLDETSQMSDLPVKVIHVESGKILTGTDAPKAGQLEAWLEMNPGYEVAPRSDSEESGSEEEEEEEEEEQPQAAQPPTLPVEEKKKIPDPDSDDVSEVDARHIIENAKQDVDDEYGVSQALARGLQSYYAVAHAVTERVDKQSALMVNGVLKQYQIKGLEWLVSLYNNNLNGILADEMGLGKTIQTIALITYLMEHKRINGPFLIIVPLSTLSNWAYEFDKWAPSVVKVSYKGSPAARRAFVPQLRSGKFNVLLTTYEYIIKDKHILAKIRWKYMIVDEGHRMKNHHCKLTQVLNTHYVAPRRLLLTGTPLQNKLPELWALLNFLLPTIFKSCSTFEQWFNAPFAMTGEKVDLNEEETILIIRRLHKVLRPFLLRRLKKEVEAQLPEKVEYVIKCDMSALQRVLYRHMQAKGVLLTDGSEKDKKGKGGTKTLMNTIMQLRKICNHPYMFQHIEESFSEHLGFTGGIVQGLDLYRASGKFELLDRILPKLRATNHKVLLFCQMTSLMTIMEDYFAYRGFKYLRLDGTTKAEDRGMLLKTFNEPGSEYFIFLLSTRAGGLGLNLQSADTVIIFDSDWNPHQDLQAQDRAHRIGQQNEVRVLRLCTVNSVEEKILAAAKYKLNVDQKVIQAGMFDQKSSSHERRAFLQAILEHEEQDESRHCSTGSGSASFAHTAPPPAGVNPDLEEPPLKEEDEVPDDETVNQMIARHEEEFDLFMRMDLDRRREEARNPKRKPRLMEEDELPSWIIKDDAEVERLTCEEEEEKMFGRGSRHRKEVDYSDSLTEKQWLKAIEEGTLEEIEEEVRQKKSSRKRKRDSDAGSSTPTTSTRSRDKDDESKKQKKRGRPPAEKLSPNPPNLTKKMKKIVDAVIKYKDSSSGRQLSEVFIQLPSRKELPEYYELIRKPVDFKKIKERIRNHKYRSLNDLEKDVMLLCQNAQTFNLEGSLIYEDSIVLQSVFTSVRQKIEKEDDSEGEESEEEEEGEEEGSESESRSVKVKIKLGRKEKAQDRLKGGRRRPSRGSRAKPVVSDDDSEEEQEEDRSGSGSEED
Method in brief: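 Degradation is scaled from DMSO-treated cells (0%) to cells given 2 μM of a known BRM/BRG1 degrader (100%). HeLa cells stably carrying HiBiT-BRG1 plus LgBiT (5000/well) were lysed with Nano-Glo HiBiT detection reagent, shaken 10 min at RT, and luminescence read.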

T1 sequence (P51531 whole entry, the tested form may be a part): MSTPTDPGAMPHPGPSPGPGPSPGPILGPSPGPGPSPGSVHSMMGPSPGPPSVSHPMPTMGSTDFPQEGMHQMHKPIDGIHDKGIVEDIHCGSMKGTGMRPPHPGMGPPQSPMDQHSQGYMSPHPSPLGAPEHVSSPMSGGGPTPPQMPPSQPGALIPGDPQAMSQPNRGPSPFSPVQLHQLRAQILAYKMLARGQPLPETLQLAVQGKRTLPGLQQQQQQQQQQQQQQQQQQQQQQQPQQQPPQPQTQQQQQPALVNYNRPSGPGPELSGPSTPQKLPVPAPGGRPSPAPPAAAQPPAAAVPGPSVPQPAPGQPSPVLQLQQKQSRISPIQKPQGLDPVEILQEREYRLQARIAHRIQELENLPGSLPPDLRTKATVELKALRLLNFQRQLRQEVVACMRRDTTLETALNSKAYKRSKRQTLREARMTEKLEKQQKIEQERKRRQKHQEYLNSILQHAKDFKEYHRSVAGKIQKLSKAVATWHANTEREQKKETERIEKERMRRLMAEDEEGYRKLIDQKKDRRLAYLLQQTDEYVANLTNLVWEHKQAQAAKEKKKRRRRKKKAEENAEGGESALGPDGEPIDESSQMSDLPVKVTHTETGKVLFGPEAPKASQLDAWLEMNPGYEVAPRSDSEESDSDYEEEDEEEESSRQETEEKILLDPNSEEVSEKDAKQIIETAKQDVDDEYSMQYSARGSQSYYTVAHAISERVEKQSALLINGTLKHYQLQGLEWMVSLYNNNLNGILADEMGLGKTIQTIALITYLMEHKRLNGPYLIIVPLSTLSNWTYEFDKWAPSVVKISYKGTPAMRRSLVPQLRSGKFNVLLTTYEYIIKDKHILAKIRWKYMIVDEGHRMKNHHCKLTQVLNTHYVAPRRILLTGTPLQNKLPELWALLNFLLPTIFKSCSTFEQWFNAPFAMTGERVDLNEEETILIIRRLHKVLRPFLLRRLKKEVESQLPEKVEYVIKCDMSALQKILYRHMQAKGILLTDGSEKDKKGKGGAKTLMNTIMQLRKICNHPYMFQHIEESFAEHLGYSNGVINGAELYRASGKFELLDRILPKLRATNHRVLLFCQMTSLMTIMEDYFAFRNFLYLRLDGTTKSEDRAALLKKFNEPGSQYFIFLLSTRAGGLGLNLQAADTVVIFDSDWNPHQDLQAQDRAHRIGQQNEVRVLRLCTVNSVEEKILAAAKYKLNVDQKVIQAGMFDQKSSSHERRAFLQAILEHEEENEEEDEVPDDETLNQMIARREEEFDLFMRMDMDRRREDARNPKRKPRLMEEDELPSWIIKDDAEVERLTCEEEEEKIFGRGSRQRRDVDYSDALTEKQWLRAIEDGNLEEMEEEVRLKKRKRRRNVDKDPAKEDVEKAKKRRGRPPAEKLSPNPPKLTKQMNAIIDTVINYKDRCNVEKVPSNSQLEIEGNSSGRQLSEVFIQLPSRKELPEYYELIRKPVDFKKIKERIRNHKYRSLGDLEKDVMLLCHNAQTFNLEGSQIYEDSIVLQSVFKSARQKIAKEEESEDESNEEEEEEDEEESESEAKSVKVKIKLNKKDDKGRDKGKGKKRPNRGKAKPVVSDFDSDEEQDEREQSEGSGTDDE

SMILES	DC50 (HiBit-BRM fusion protein) [µM]	BRM HiBit Degradation Maximum measured (HiBit-BRM fusion protein)	DC50 [1] [µM]	Dmax [1] [%]
Cc1ncsc1-c1ccc(CNC(=O)[C@H]2C[C@@H](O)CN2C(=O)[C@@H](NC(=O)COCCOCCOCCNC(=O)CCCOCC[C@H](NC(=O)c2ccn(S(C)(=O)=O)c2)C(=O)Nc2nc(-c3ccccc3)cs2)C(C)(C)C)cc1 [Compound 250, (2R,4R)-4-hydroxy-1-[(2S)-2-(2-[2-[2-(2-[4-[(3S)-3-[(1-methanesulfonylpyrrol-3-yl)formamido]-3-[(4-phenyl-1,3-thiazol-2-yl)carbamoyl]propoxy]butanamido]ethoxy)ethoxy]ethoxy]acetamido)-3,3-dimethylbutanoyl]-N-[[4-(4-methyl-1,3-thiazol-5-yl)phenyl]methyl]pyrrolidine-2-carboxamide]	> 10	C (‘C’ = Maximum degradation <50%)	> 10	< 50
CS(=O)(=O)n1ccc(C(=O)N[C@@H](COCc2ccc(C(=O)NC3CCN(CCOc4ccc5c(c4)C(=O)N(C4CCC(=O)NC4=O)C5=O)CC3)cc2)C(=O)Nc2nc(-c3ccccc3)cs2)c1 (stereo partly drawn) [Compound 247, N-[1-(2-[[2-(2,6-dioxopiperidin-3-yl)-1,3-dioxoisoindol-5-yl]oxy]ethyl)piperidin-4-yl]-4-[[(2S)-2-[(1-methanesulfonylpyrrol-3-yl)formamido]-2-[(4-phenyl-1,3-thiazol-2-yl)carbamoyl]ethoxy]methyl]benzamide]	0.1 to 1	A (‘A’ = Maximum degradation >75%)	0.1 to 1	> 75
Cc1ncsc1-c1ccc(CNC(=O)[C@@H]2C[C@@H](O)CN2C(=O)[C@@H](NC(=O)CCCCCCCCC(=O)NCCOc2cc(-c3cccc(-c4csc(NC(=O)CNC(=O)c5ccn(S(C)(=O)=O)c5)n4)c3)ccn2)C(C)(C)C)cc1 [Compound 69, N1-((S)-1-((2S,4R)-4-hydroxy-2-((4-(4-methylthiazol-5-yl)benzyl)carbamoyl)pyrrolidin-1-yl)-3,3-dimethyl-1-oxobutan-2-yl)-N10-(2-((4-(3-(2-(2-(1-(methylsulfonyl)-1H-pyrrole-3-carboxamido)acetamido)thiazol-4-yl)phenyl)pyridin-2-yl)oxy)ethyl)decanediamide]	< 0.1	A (‘A’ = Maximum degradation >75%)	0.1 to 1	> 75
CC(C)(C(=O)NCCOCCOCCNc1cccc2c1C(=O)N(C1CCC(=O)NC1=O)C2=O)n1ccc(-c2cccc(-c3csc(NC(=O)CNC(=O)c4ccn(S(C)(=O)=O)c4)n3)c2)n1 (stereo not shown) [Compound 6, N-(2-((4-(3-(1-(1-((2-(2-(2-((2-(2,6-dioxopiperidin-3-yl)-1,3-dioxoisoindolin-4-yl)amino)ethoxy)ethoxy)ethyl)amino)-2-methyl-1-oxopropan-2-yl)-1H-pyrazol-3-yl)phenyl)thiazol-2-yl)amino)-2-oxoethyl)-1-(methylsulfonyl)-1H-pyrrole-3-carboxamide]	> 10	C (‘C’ = Maximum degradation <50%)	> 10	< 50
CN(CC(=O)N1CCC(C2CCN(C(=O)COc3cccc4c3C(=O)N(C3CCC(=O)NC3=O)C4=O)CC2)CC1)c1cc(-c2cccc(-c3csc(NC(=O)CNC(=O)c4ccn(S(C)(=O)=O)c4)n3)c2)ccn1 (stereo not shown) [Compound 17, N-(2-((4-(3-(2-((2-(1′-(2-((2-(2,6-dioxopiperidin-3-yl)-1,3-dioxoisoindolin-4-yl)oxy)acetyl)-[4,4′-bipiperidin]-1-yl)-2-oxoethyl)(methyl)amino)pyridin-4-yl)phenyl)thiazol-2-yl)amino)-2-oxoethyl)-1-(methylsulfonyl)-1H-pyrrole-3-carboxamide]	> 10	C (‘C’ = Maximum degradation <50%)	> 10	< 50
CS(=O)(=O)n1ccc(C(=O)N[C@@H](CCOCCCC(=O)N2CCN(CC3CN(c4ccc5c(c4)C(=O)N(C4CCC(=O)NC4=O)C5=O)C3)CC2)C(=O)Nc2nc(-c3ccccc3)cs2)c1 (stereo partly drawn) [Compound 183, (2S)-4-[4-[4-([1-[2-(2,6-dioxopiperidin-3-yl)-1,3-dioxoisoindol-5-yl]azetidin-3-yl]methyl)piperazin-1-yl]-4-oxobutoxy]-2-[(1-methanesulfonylpyrrol-3-yl)formamido]-N-(4-phenyl-1,3-thiazol-2-yl)butanamide; formic acid]	> 10	C (‘C’ = Maximum degradation <50%)	> 10	< 50
CS(=O)(=O)n1ccc(C(=O)NCC(=O)Nc2nc(-c3cccc(-c4cccc(CNC(=O)CCOCCOCCOc5cccc6c5C(=O)N(C5CCC(=O)NC5=O)C6=O)c4)c3)cs2)c1 (stereo not shown) [Compound 64, N-[2-[[4-[3-[3-[[3-[2-[2-[2-(2,6-dioxo-3-piperidyl)-1,3-dioxo-isoindolin-4-yl]oxyethoxy]ethoxy]propanoylamino]-methyl]phenyl]phenyl]thiazol-2-yl]amino]-2-oxo-ethyl]-1-methylsulfonyl-pyrrole-3-carboxamide]	> 10	C (‘C’ = Maximum degradation <50%)	> 10	< 50
CS(=O)(=O)n1ccc(C(=O)N[C@@H](COCc2ccc(C(=O)NCCNc3ccc4c(c3)C(=O)N(C3CCC(=O)NC3=O)C4=O)cc2)C(=O)Nc2nc(-c3ccccc3)cs2)c1 (stereo partly drawn) [Compound 240, N-(2-[[2-(2,6-dioxopiperidin-3-yl)-1,3-dioxoisoindol-5-yl]amino]ethyl)-4-[[(2S)-2-[(1-methanesulfonylpyrrol-3-yl)formamido]-2-[(4-phenyl-1,3-thiazol-2-yl)carbamoyl]ethoxy]methyl]benzamide]	> 10	C (‘C’ = Maximum degradation <50%)	> 10	< 50
CS(=O)(=O)n1ccc(C(=O)N[C@@H](CCOCCCC(=O)NCCOc2ccc3c(c2)C(=O)N(C2CCC(=O)NC2=O)C3=O)C(=O)Nc2nc(-c3ccccc3)cs2)c1 (stereo partly drawn) [Compound 280, (2S)-4-[3-[(2-[[2-(2,6-dioxopiperidin-3-yl)-1,3-dioxoisoindol-5-yl]oxy]ethyl)carbamoyl]propoxy]-2-[(1-methanesulfonylpyrrol-3-yl)formamido]-N-(4-phenyl-1,3-thiazol-2-yl)butanamide]	> 10	C (‘C’ = Maximum degradation <50%)	> 10	< 50
CS(=O)(=O)n1ccc(C(=O)NCC(=O)Nc2nc(-c3cccc(-c4ccnc(C5(C(=O)N6CCC(C7CCN(C(=O)COc8cccc9c8C(=O)N(C8CCC(=O)NC8=O)C9=O)CC7)CC6)CC5)c4)c3)cs2)c1 (stereo not shown) [Compound 14, N-(2-((4-(3-(2-(1-(1′-(2-((2-(2,6-dioxopiperidin-3-yl)-1,3-dioxoisoindolin-4-yl)oxy)acetyl)-[4,4′-bipiperidine]-1-carbonyl)cyclopropyl)pyridin-4-yl)phenyl)thiazol-2-yl)amino)-2-oxoethyl)-1-(methylsulfonyl)-1H-pyrrole-3-carboxamide]	> 10	C (‘C’ = Maximum degradation <50%)	> 10	< 50
CS(=O)(=O)n1ccc(C(=O)N[C@@H](COCc2ccc(C(=O)N3CCN(CCCC#Cc4ccc5c(c4)C(=O)N(C4CCC(=O)NC4=O)C5=O)CC3)cc2)C(=O)Nc2nc(-c3ccccc3)cs2)c1.O=CO (stereo partly drawn) [Compound 239, (2S)-3-[[4-(4-[5-[2-(2,6-dioxopiperidin-3-yl)-1,3-dioxoisoindol-5-yl]pent-4-yn-1-yl]piperazine-1-carbonyl)phenyl]methoxy]-2-[(1-methanesulfonylpyrrol-3-yl)formamido]-N-(4-phenyl-1,3-thiazol-2-yl)propanamide; formic acid]	> 10	C (‘C’ = Maximum degradation <50%)	> 10	< 50
Cc1ncsc1-c1ccc(CNC(=O)[C@@H]2C[C@@H](O)CN2C(=O)[C@@H](NC(=O)CN2CC3(CC(C(=O)NCc4cccc(-c5cccc(-c6csc(NC(=O)CNC(=O)c7ccn(S(C)(=O)=O)c7)n6)c5)c4)C3)C2)C(C)(C)C)cc1 [Compound 163, 2-([[(2S)-1-[(2S,4R)-4-hydroxy-2-([[4-(4-methyl-1,3-thiazol-5-yl)phenyl]methyl]carbamoyl)pyrrolidin-1-yl]-3,3-dimethyl-1-oxobutan-2-yl]carbamoyl]methyl)-N-[[3-(2-[2-[(1-methanesulfonylpyrrol-3-yl)formamido]acetamido]-1,3-thiazol-4-yl)-[1,1-biphenyl]-3-yl]methyl]-2-azaspiro[3.3]heptane-6-carboxamide]	0.1 to 1	B (‘B’ = Maximum degradation ≥50% and ≤75%)	> 10	< 50
CS(=O)(=O)n1ccc(C(=O)N[C@@H](CCOCCCC(=O)NCCCCNc2ccc3c(c2)C(=O)N(C2CCC(=O)NC2=O)C3=O)C(=O)Nc2nc(-c3ccccc3)cs2)c1 (stereo partly drawn) [Compound 282, (2S)-4-[3-[(4-[[2-(2,6-dioxopiperidin-3-yl)-1,3-dioxoisoindol-5-yl]amino]butyl)carbamoyl]propoxy]-2-[(1-methanesulfonylpyrrol-3-yl)formamido]-N-(4-phenyl-1,3-thiazol-2-yl)butanamide]	> 10	C (‘C’ = Maximum degradation <50%)	> 10	< 50
